pEC50: −log10 of the molar value.
Key:
BK channels = target: T1, BK channels (Homo sapiens, UniProt Q12791); experiment: BK channel opening activity, two-electrode voltage clamp in Xenopus laevis oocytes; assay type: cell-based
T1 construct: expressed in transfected cells; host or cells: Xenopus laevis oocytes
Description: In this example the BK channel opening activity of Compound 9 (FIGS. 1A and 1B) is determined using BK channels heterologously expressed in Xenopus laevis oocytes.
The electrical current through the BK channel was measured using conventional two-electrode voltage clamp. BK currents were activated by repeating ramp protocols. In brief, the membrane potential was continuously changed from −120 mV to +120 mV within a 2 s period. The threshold for BK activation is approximately +30 mV under control conditions. Compounds were applied for 100 s during which the ramp protocol was repeated 10 times with 10 s intervals. In between the ramp protocols the membrane potential was clamped at −80 mV. The first three compound applications were control blanks where the current level is allowed to stabilize.
In order to evaluate the ability of the compounds to shift the BK activation curve towards lower membrane potentials, the BK current was transformed into conductance by using Ohm's law […], where g is the conductance, I is the current, Ememb is the membrane potential and Erev is the reversal potential. The extracellular solution for these experiments contained 2.5 mM K+ and the intracellular K+ concentration of an oocyte was estimated to be 100 mM. Under those conditions, Nernst equation predicts a reversal potential of Erev=−93.2 mV. The control conductance level at a membrane potential of +100 mV was calculated, and the compound effect was evaluated as the potential difference, ΔV, to the membrane potential at which the same conductance level was obtained in the presence of compound.
The concentration response curve for this potential difference was fitted to the sigmoidal logistic equation: ΔV=ΔVmax/(1+(EC50/[compound])^n), where ΔVmax represents the maximal left shift of the BK activation curve, EC50 is the concentration causing a half maximal response, and n is the slope coefficient.

T1 sequence (Q12791 whole entry): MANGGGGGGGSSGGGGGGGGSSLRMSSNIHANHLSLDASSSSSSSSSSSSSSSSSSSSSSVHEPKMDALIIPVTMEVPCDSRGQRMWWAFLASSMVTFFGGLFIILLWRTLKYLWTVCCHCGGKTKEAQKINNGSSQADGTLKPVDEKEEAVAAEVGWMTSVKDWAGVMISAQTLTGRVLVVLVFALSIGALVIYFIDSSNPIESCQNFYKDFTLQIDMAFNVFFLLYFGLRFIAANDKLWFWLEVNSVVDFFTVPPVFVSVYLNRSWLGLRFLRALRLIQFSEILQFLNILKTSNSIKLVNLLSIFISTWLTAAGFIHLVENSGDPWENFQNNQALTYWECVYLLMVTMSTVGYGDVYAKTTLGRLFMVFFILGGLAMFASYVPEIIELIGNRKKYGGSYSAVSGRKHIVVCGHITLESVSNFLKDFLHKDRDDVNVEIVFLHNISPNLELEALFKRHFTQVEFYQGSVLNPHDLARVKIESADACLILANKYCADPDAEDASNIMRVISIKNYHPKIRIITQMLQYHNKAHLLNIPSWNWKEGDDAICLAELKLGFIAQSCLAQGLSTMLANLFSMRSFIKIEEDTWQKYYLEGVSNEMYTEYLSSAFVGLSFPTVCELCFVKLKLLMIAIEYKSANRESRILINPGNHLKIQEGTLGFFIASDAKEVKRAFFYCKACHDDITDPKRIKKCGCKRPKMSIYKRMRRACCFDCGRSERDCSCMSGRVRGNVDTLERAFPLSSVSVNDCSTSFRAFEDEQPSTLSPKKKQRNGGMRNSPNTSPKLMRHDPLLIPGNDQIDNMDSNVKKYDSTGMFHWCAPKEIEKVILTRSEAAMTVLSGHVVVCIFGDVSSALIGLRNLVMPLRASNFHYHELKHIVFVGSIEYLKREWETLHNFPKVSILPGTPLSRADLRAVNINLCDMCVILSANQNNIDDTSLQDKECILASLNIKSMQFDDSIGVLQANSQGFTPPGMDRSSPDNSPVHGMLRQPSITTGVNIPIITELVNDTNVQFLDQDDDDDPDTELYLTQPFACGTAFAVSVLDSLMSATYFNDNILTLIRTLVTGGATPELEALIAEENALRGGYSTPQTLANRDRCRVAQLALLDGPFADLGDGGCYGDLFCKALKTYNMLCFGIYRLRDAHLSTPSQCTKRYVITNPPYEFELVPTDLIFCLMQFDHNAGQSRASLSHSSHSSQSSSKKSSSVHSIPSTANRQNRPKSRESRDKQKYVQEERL

COc1ccc(-n2cc(/C=C/C(=O)O)c(-c3ccc(Cl)c(F)c3)n2)cc1Cl [Compound 3, (E)-3-[3-(4-Chloro-3-fluoro-phenyl)-1-(3-chloro-4-methoxy-phenyl)-1H-pyrazol-4-yl]-acrylic acid]
melting point: 240.2 to 241.3 °C

COc1ccc(-n2cc(/C=C/c3nnn[nH]3)c(-c3ccc(Cl)c(F)c3)n2)cc1Cl [Compound 5, 5-{(E)-2-[3-(4-Chloro-3-fluorophenyl)-1-(3-chloro-4-methoxy-phenyl)-1H-pyrazol-4-yl]-vinyl}-1H-tetrazole]
melting point: 128.4 to 130 °C

COc1ccc(-n2cc(/C=C/C(=O)NS(C)(=O)=O)c(-c3ccc(Cl)c(F)c3)n2)cc1Cl [Compound 6, N-{(E)-3-[3-(4-Chloro-3-fluoro-phenyl)-1-(3-chloro-4-methoxy-phenyl)-1H-pyrazol-4-yl]-acryloyl}-methanesulfonamide]
melting point: 269.3 to 270.5 °C

Clc1ccc(-c2nn(-c3ccc(Br)cc3)cc2CCc2nnn[nH]2)cc1 [Compound 9, 5-{2-[1-(4-Bromo-phenyl)-3-(4-chloro-phenyl)-1H-pyrazol-4-yl]-ethyl}-1H-tetrazole]
pEC50 (BK channels; BK channels heterologously expressed in Xenopus laevis oocytes, ramp -120 to +120 mV, 0.01-31.6 μM, fit of ΔV vs concentration, read-out: EC50 for the left-shift of the BK activation curve): 5.85
ΔVmax, maximal left shift of the BK activation curve (BK channels; BK channels heterologously expressed in Xenopus laevis oocytes, ΔV referred to control conductance at +100 mV, 0.01-31.6 μM): −96 mV
BK current level at depolarizing potentials (BK channels; increasing concentrations (0.01-31.6 μM) applied, Xenopus laevis oocytes): marked increase in the current level

COc1ccc(-n2cc(/C=C(\C#N)C(=O)O)c(-c3ccc(Cl)c(F)c3)n2)cc1Cl [Compound 14, (E)-3-[3-(4-Chloro-3-fluoro-phenyl)-1-(3-chloro-4-methoxy-phenyl)-1H-pyrazol-4-yl]-2-cyano-acrylic acid]
melting point: 282.8 to 284.2 °C

O=c1[nH]c(Cc2cn(-c3cc(C(F)(F)F)cc(C(F)(F)F)c3)nc2-c2cccc(Cl)c2)no1 [Compound 17, 3-[1-(3,5-Bis-trifluoromethyl-phenyl)-3-(3-chloro-phenyl)-1H-pyrazol-4-ylmethyl]-4H-[1,2,4]oxadiazol-5-one]
melting point: 200 to 201 °C

COc1ccc(-n2cc(CC(=O)NS(C)(=O)=O)c(-c3ccc(Cl)c(F)c3)n2)cc1Cl [Compound 18, N-{2-[3-(4-Chloro-3-fluorophenyl)-1-(3-chloro-4-methoxy-phenyl)-1H-pyrazol-4-yl]-acetyl}-methanesulfonamide]
melting point: 216.8 to 218.2 °C

From patent publication US20100179203A1, “NOVEL PYRAZOLE DERIVATIVES USEFUL AS POTASSIUM CHANNEL MODULATORS” (priority 2007, published 2010)
